Measurements taken from patent publication US20090025102A1, “GLUTAMATE RECEPTOR […] AND PROTEINS FOR ENHANCING NITROGEN U[…] CROP PLANTS” (PIONEER HI-BRED INTERNATIONAL, INC., priority 2007, published 2009).

Key:
AtGLR-AP knockout lines [1] = details: lines deficient in AtGLR1.1, uM 200, previously demonstrated; cited from earlier work
AtGLR-AP knockout lines [2] = experiment: Germination bioassay with the iGLR antagonist DNQX; type: in vivo, Arabidopsis
Method: Therefore we used a similar approach to test the sucrose sensitivity of the homozygous AtGLR-APs lines described above by conducting vertical plate assays on MS plates minus N and supplemented with increasing concentrations of sucrose. […] We also developed a short term N-sensitivity bioassay.
Bioassay, iGLR Antagonist DNQX
However, germination of the GRASP2.1-1 line was not affected when DNQX was added to the media.

[3] = tested on: PSD1.1 and PSD2.1 KO plants; experiment: Growth assay of PSD1.1 and PSD2.1 KO plants on media containing DNQX; type: in vivo, Arabidopsis; details: 200 or 400 μM DNQX and 3% sucrose, 7 days
Method: Growth assays for the PSD1.1 and PSD2.1 KO plants were undertaken. Plants were sown on different media, refrigerated overnight, then incubated in the standard growth conditions for 7 days. The short vernalization was used as that is what has been typically used in this lab for DNQX experiments. […] When grown in the presence of 3% sucrose, both on MS and media lacking nitrogen PSD1.1 and PSD2.1 looks similar to Col-0.

Structure (SMILES): O=c1[nH]c2cc([N+](=O)[O-])c([N+](=O)[O-])cc2[nH]c1=O [DNQX, 6,7-dinitroquinoxaline-2,3-[1H,4H]-dione]
- sensitivity of Arabidopsis lines deficient in AtGLR1.1 to the iGLR antagonist (AtGLR-AP knockout lines [1]): sensitive
- germination when DNQX was added to the media (AtGLR-AP knockout lines [2]; GRASP2.1-1 line): not affected
- germination on media supplemented DNQX (AtGLR-AP knockout lines [2]; GRASP2.3-6 line): noticeable reduction in germination
- decrease in germination (AtGLR-AP knockout lines [2]; PSD1.1 knockout, 200 uM DNQX): 35-40%
- difference between Col-0 and the two KO lines [3]: No obvious difference
